Experimental data published in US20210386736A1, “COMBINATION THERAPY FOR TREATING CANCER” (AstraZeneca AB, priority 2018, published 2021).

How the values were obtained:
HL-60 AML cells = assay: HL-60 subcutaneous AML xenograft, tumor volume over time; type: in vivo, SCID mice; settings: FIG. 2; AZD2811 nanoparticles 50, 25, 12.5 or 6.25 mg/kg iv once weekly, venetoclax 100 mg/kg orally daily, 3 weekly cycles; combination benefit notably at the lowest doses of AZD2811
Description: HL-60: 1×10^7 HL-60 AML cells in 50% matrigel were implanted subcutaneously on the left flank of adult female SCID mice. Mice were randomised by tumor volume at D7 into groups of 8, with an average tumor volume of 0.2 cm^3 and all dosing was started. AZD2811 nanoparticles were dosed at once weekly with a 20-30 s intravenous infusion at either 50 mg/kg, 25 mg/kg, 12.5 mg/kg and 6.25 mg/kg (100 mg/kg was the maximum tolerated dose in combination with venetoclax (ABT-199) 100 mg/kg; venetoclax was administered orally daily at 100 mg/kg). All drugs were given for 3 weekly cycles. For both models, tumors were measured twice weekly by single operators, and all dosing was performed by randomised cage to minimise systematic bias. For the MOLM-13 orthotopic model, 1×10^6 MOLM-13 cells were injected into the tail vien of adult female NOG mice. After 3 days, mice were randomised by body-weight into groups of 8 and treatment was commenced the following day. AZD2811 nanoparticles were dosed at once weekly with a 20-30 s intravenous infusion at 25 mg/kg (25 mg/kg was the maximum tolerated dose in combination with venetoclax (ABT-199) 100 mg/kg; venetoclax was administered orally daily at 100 mg/kg). […] All drugs were given for 2 weekly cycles, the study endpoint was determined by a welfare scoring table.

KG1a AML cells = assay: KG1a subcutaneous AML xenograft, tumor volume over time; type: in vivo, SCID mice; settings: FIG. 1; AZD2811 nanoparticles 100 mg/kg iv once weekly, venetoclax 100 mg/kg orally daily, 3 weekly cycles
Description: KGa1: 2×10^7 KG1a AML cells in 50% matrigel were implanted subcutaneously on the left flank of adult female SCID mice. Mice were randomised by tumor volume at D7 into groups of 8, with an average tumor volume of 0.2 cm^3 and all dosing was started. AZD2811 nanoparticles were dosed at once weekly with a 20-30 s intravenous infusion at either 100 mg/kg (100 mg/kg was the maximum tolerated dose in combination with venetoclax (ABT-199) 100 mg/kg; venetoclax was administered orally daily at 100 mg/kg). All drugs were given for 3 weekly cycles.
HL-60: 1×10^7 HL-60 AML cells in 50% matrigel were implanted subcutaneously on the left flank of adult female SCID mice. Mice were randomised by tumor volume at D7 into groups of 8, with an average tumor volume of 0.2 cm^3 and all dosing was started. AZD2811 nanoparticles were dosed at once weekly with a 20-30 s intravenous infusion at either 50 mg/kg, 25 mg/kg, 12.5 mg/kg and 6.25 mg/kg (100 mg/kg was the maximum tolerated dose in combination with venetoclax (ABT-199) 100 mg/kg; venetoclax was administered orally daily at 100 mg/kg). All drugs were given for 3 weekly cycles. For both models, tumors were measured twice weekly by single operators, and all dosing was performed by randomised cage to minimise systematic bias. […] All drugs were given for 2 weekly cycles, the study endpoint was determined by a welfare scoring table.

CC1(C)CCC(CN2CCN(c3ccc(C(=O)NS(=O)(=O)c4ccc(NCC5CCOCC5)c([N+](=O)[O-])c4)c(Oc4cnc5[nH]ccc5c4)c3)CC2)=C(c2ccc(Cl)cc2)C1 [venetoclax, Venetoclax]
efficacy (HL-60 tumor volume over time) (HL-60 AML cells): active
efficacy (KG1a tumor volume over time) (KG1a AML cells): modestly efficacious
